Experimental data as given in patent publication EP2926811A1, “ARTEMETHER-CONTAINING PHARMACEUTICAL COMPOSITION, PREPARATION, AND USE THEREOF” (Kunming Pharmaceutical Corp., priority 2012, dated 2014).
Read-outs that look alike come from different tables or passages of the source.

Tests used:
Format in all cases: cell-based
K562 cells = experiment: modified MTT method, proliferation of K562 cells; settings: Homo sapiens, read-out: IC50 on the growth of K562 cells
Procedure: (§1) Five test concentrations 2, 10, 50, 250 and 500 µM were set for each of five derivatives of artemisinin, artemether drug substance, artemisinin, dihydroartemisinin, artesunate were dissolved with dimethyl sulfoxide (DMSO), while the lyophilized powder of artemether was dissolved with normal saline (N.S.), followed by addition of a certain amount of RPMI 1640 complete culture solution to formulate a high-concentration solution, and each of the low-concentration solutions was formulated by proportionate dilution from the high-concentration solution.
(§2) The concentrations of DMSO contained in the solutions at the two relatively high concentrations 500 and 250 µM for the artemether drug substance, artemisinin, dihydroartemisinin, artesunate, used as solvent controls, were formulated with […] culture solution, at which time the test concentrations of DMSO were 1% and 0.5%. The concentrations of the excipients contained in the solutions at the two relatively high concentrations 500 and 250 µM for the preparation of lyophilized powder of artemether were used as solvent controls.
(§3) The positive control was an anti-cancer drug adriamycin (ADM), which was set at three test concentrations (final concentrations) of 0.1, 1 and 10 µg/ml. To ADM stock solution (1 mg/ml) a certain amount of PRMI 1640 complete culture solution was added, to formulate a high-concentration solution, and each of the low-concentration solutions were formulated by proportionate dilutions from the high-concentration solution.
(§4) HL-60: (human promyelocytic leukemia cell line); K562 (human chronic myelocytic leukemia cell line); HT-29 (human colon cancer cell line); PC-3 (human prostate cancer cell line); A549 (human non-small cell lung cancer cell line); MKN-28 (human gastric cancer cell line); Hep2 (human laryngeal cancer cell line), all of which were purchased from Cell Bank of Shanghai Institutes for Biological Sciences, the Chinese Academy of Sciences.
(§5) Influence of the five test samples on the proliferation of 7 human tumor cell lines was determined via a modified MTT method.
(§6) Cells in logarithmic growth phase were taken, adjusted to a certain concentration and then added into a 96 well culture plate. After culture of adherent cells for a period until adherence, the test samples were added; and for suspension cells, the test samples were added after inoculation. 5 test concentrations 2, 10, 50, 250 and 500 µM were set, with 3 parallel wells for each concentration, 10 µl/well; the solvent controls were 0.5% and 1% of isovolumetric DMSO, and the positive controls was ADM at 3 concentrations 0.1, 1 and 10 µg/ml. The samples were loaded followed by culture for a period of time in an incubator at 37°C, 5% CO2, followed by addition of MTT (5 mg/ml) at 20 µl/well, and continued to be cultured for a period of time and added with a three-combined solution [10% SDS - 5% isobutanol - 0.012 mol/L HCl (W/V/V)]. After dissolving in uniformity, it was continued to be placed in the incubator at 37°C, 5% CO2 for a period of time, and the OD value of each well was determined under a wavelength of 570 nm with a microplate reader, according to which the results were calculated.
(§7) The cellular proliferation inhibition rate was calculated in accordance with the following equation: Inhibition rate (%) = (OD valuecontrol well-OD valuesample well)/OD valuecontrol well × 100% [formula]
(§8) When the inhibition rate of DMSO on cells was more than 15%, calculation was carried out using the following equation: Inhibition rate (%) = (OD valuesolvent group-OD valueadministered well)/OD valuesolvent group × 100% [formula]
(§9) The inhibition rate was calculated by using Microsoft Excel 2003, and median inhibitory concentration IC50 was calculated with a LOGIT method, which was used as an indicator for judging the inhibitory capability.

HL-60 cells = experiment: modified MTT method, proliferation of HL-60 cells; settings: Homo sapiens, read-out: IC50 on the growth of HL-60 cells
Procedure: as §1, §2, §3, §4, §5, §6, §7, §8, §9

A549 cells = experiment: modified MTT method, proliferation of A549 cells; settings: Homo sapiens, read-out: IC50 on the growth of A549 cells
Procedure: as §1, §2, §3, §4, §5, §6, §7, §8, §9

HT-29 cells = experiment: modified MTT method, proliferation of HT-29 cells; settings: Homo sapiens
Procedure: as §1, §2, §3, §4, §5, §6, §7, §8, §9
(§10) According to the results of preliminary screening, further experiments were adjusted such that more sensitive cell lines were screened out. […]

PC-3 cells = experiment: modified MTT method, proliferation of PC-3 cells; settings: Homo sapiens, read-out: IC50 on the growth of PC-3 cells
Procedure: as §1, §2, §3, §4, §5, §6, §7, §8, §9

MKN-28 cells = experiment: modified MTT method, proliferation of MKN-28 cells; settings: Homo sapiens, MKN-28, 72 h, secondary screening
Procedure: as §1, §2, §3, §4, §5, §6, §7, §8, §9, §10

Hep2 cells = experiment: modified MTT method, proliferation of Hep2 cells; settings: Homo sapiens, HEp-2, 72 h, secondary screening
Procedure: as §1, §2, §3, §4, §5, §6, §7, §8, §9, §10

SMILES: CO[C@H]1O[C@@H]2O[C@@]3(C)CC[C@H]4[C@H](C)CC[C@@H]([C@H]1C)[C@@]24OO3 [artemether drug substance, (3R,5αS,6R,8αS,9R,10S,12R,12αR)-decahydro-10-methoxy-3,6,9-trimethyl-3,12-epoxy-12H-pyrano[4,3-j]-1,2-benzodioxepin]
- IC50 (K562 cells; K562, 24 h, Batch 1, 24 h): > 1000 µM
- IC50 (K562 cells; K562, 24 h, Batch 2, 24 h): > 1000 µM
- IC50 (K562 cells; K562, 24 h, Batch 3, 24 h): 345 µM
- IC50 (K562 cells; K562, 48 h, Batch 1, 48 h): > 1000 µM
- IC50 (K562 cells; K562, 48 h, Batch 2, 48 h): > 1000 µM
- IC50 (K562 cells; K562, 48 h, Batch 3, 48 h): 331 µM
- IC50 (K562 cells; K562, 72 h, Batch 1, 72 h): > 1000 µM
- IC50 (K562 cells; K562, 72 h, Batch 2, 72 h): 893 µM
- IC50 (K562 cells; K562, 72 h, Batch 3, 72 h): 137 µM
- IC50 (HL-60 cells; HL-60, 24 h, Batch 1, 24 h): > 1000 µM
- IC50 (HL-60 cells; HL-60, 24 h, Batch 2, 24 h): 658 µM
- IC50 (HL-60 cells; HL-60, 48 h, Batch 1, 48 h): > 1000 µM
- IC50 (HL-60 cells; HL-60, 48 h, Batch 2, 48 h): 77.2 µM
- IC50 (HL-60 cells; HL-60, 72 h, Batch 1, 72 h): > 1000 µM
- IC50 (HL-60 cells; HL-60, 72 h, Batch 2, 72 h): 248 µM
- IC50 (A549 cells; A549, 24 h, Batch 1, 24 h): > 1000 µM
- IC50 (A549 cells; A549, 24 h, Batch 2, 24 h): 641 µM
- IC50 (A549 cells; A549, 48 h, Batch 1, 48 h): > 1000 µM
- IC50 (A549 cells; A549, 48 h, Batch 2, 48 h): > 1000 µM
- IC50 (A549 cells; A549, 72 h, Batch 1, 72 h): > 1000 µM
- IC50 (A549 cells; A549, 72 h, Batch 2, 72 h): 832 µM
- IC50 (HT-29 cells; HT-29, 24 h, preliminary screening, Batch 1, 24 h, read-out: IC50 on the growth of HT-29 cells): > 1000 µM
- IC50 (HT-29 cells; HT-29, 24 h, preliminary screening, Batch 2, 24 h, read-out: IC50 on the growth of HT-29 cells): > 1000 µM
- IC50 (HT-29 cells; HT-29, 48 h, preliminary screening, Batch 1, 48 h, read-out: IC50 on the growth of HT-29 cells): > 1000 µM
- IC50 (HT-29 cells; HT-29, 48 h, preliminary screening, Batch 2, 48 h, read-out: IC50 on the growth of HT-29 cells): > 1000 µM
- IC50 (HT-29 cells; HT-29, 72 h, preliminary screening, Batch 1, 72 h, read-out: IC50 on the growth of HT-29 cells): 318 µM
- IC50 (HT-29 cells; HT-29, 72 h, preliminary screening, Batch 2, 72 h, read-out: IC50 on the growth of HT-29 cells): 579 µM
- IC50 (HT-29 cells; HT-29, 72 h, secondary screening, 72 h, Batch 1, read-out: IC50 on the growth of HT-29 cells (72 h)): 214 µM
- IC50 (HT-29 cells; HT-29, 72 h, secondary screening, 72 h, Batch 2, read-out: IC50 on the growth of HT-29 cells (72 h)): 263 µM
- IC50 (HT-29 cells; HT-29, 72 h, secondary screening, 72 h, Batch 3, read-out: IC50 on the growth of HT-29 cells (72 h)): 245 µM
- IC50 (HT-29 cells; HT-29, 72 h, secondary screening, 72 h, average, read-out: IC50 on the growth of HT-29 cells (72 h)): 255 µM
- IC50 (PC-3 cells; PC-3, 24 h, Batch 1, 24 h): > 1000 µM
- IC50 (PC-3 cells; PC-3, 24 h, Batch 2, 24 h): > 1000 µM
- IC50 (PC-3 cells; PC-3, 48 h, Batch 1, 48 h): > 1000 µM
- IC50 (PC-3 cells; PC-3, 48 h, Batch 2, 48 h): > 1000 µM
- IC50 (PC-3 cells; PC-3, 72 h, Batch 1, 72 h): > 1000 µM
- IC50 (PC-3 cells; PC-3, 72 h, Batch 2, 72 h): > 1000 µM
- IC50 (MKN-28 cells; Average, read-out: IC50 on the growth of MKN-28 cells (72 h)): 402 µM
- IC50 (MKN-28 cells; Batch 1, read-out: IC50 on the growth of MKN-28 cells (72 h)): 27900 µM
- IC50 (MKN-28 cells; Batch 2, read-out: IC50 on the growth of MKN-28 cells (72 h)): 336 µM
- IC50 (MKN-28 cells; Batch 3, read-out: IC50 on the growth of MKN-28 cells (72 h)): 520 µM
- IC50 (Hep2 cells; Batch 1, read-out: IC50 on the growth of Hep2 cells (72 h)): 412 µM
- IC50 (Hep2 cells; Batch 2, read-out: IC50 on the growth of Hep2 cells (72 h)): > 1000 µM
- IC50 (Hep2 cells; Batch 3, read-out: IC50 on the growth of Hep2 cells (72 h)): > 1000 µM
- IC50 (Hep2 cells; average, read-out: IC50 on the growth of Hep2 cells (72 h)): > 1000 µM
